Measured values from US9738675B2, “Water-soluble photochromic compound” (RIKKYO EDUCATIONAL CORPORATION, priority 2012, dated 2017).

Legend:
[1] = Photochromic property: absorption and fluorescence spectra in solution; assay type: physicochemical
Description: The spectrum of the open ring form is shown by dotted line 10. Irradiation with the UV light (313 nm) turned the solution purple, and a spectrum shown by solid line 20 was observed.
The water solubility of a compound of formula (I-2) was assessed similarly to Example 1, to check that the compound is water soluble. Specifically, the compound of (1-2) was dissolved in a small amount of methanol (0.2 mL), and distilled water (4 mL) was added to prepare a 95% aqueous solution, and an absorption spectrum of FIG. 2 (by Hitachi, using U-4100) was obtained as a result. The spectrum of the open ring form is shown by dotted line 10. Irradiation with a UV light (313 nm) turned the solution yellow, and a spectrum shown by solid line 20 was observed. In addition, the irradiation with the UV light made the compound fluorescent, and a spectrum of solid line 30 was obtained.
Curve 10 is a spectrum of the compound (open ring form) of formula (I-3), and the maximum absorption wave length was 254 nm. Then, an aqueous solution of the compound of formula (I-3) was irradiated with light of 254 nm to obtain a photostationary state (PSS), in which the ring closing reaction has ended. The spectrum at this state is shown as curve 20. The maximum absorption wavelength of the closed ring form was 595 nm.
About 0.5 mg of the given compound was dissolved in each of 0.5 mL of water/methanol (weight rate of 90/10) and 0.5 mL of only methanol to prepare a solution. For convenience, the former will be referred to as an aqueous solution, and the latter will be referred to as a methanol solution. Curve 10 is a spectrum of the compound of formula (I-4) (open ring form). In the methanol solution, the maximum absorption wavelength is 450 nm, and the molar absorption coefficient was 39000 M^−1 cm^−1. The absorption disappeared when irradiated with visible light, and the solution returned to a colorless state. Curve 20 is a spectrum of the closed ring form. […] Further, the fluorescence disappeared when the compound returned to the open ring form.
In the aqueous solution, the maximum absorption wavelength of the open ring form was 458 nm, and the molar absorption coefficient was 36000 M^−1 cm^−1. The absorption disappeared when irradiated with visible light, and the solution returned to a colorless state. […] Further, the fluorescence disappeared when the compound returned to the open ring form.

[2] = Assessment of water-solubility; assay type: physicochemical; conditions: assessed similarly to Example 1
Description: The water solubility of a compound of formula (I-2) was assessed similarly to Example 1, to check that the compound is water soluble.

[3] = 95% aqueous solution, UV 313 nm

| Structure (SMILES) | colour of solution after irradiation with UV light [1, 3] | fluorescence after irradiation with UV light [1, 3] | water solubility [2] | maximum absorption wave length, open ring form ([1]; aqueous solution) [nm] | maximum absorption wavelength, closed ring form ([1]; aqueous solution, photostationary state after 254 nm light) [nm] | photochromism ([1]; aqueous solution, visible light longer than 600 nm) |
| --- | --- | --- | --- | --- | --- | --- |
| CC1=C(C2=C(C3=C(C)S(=O)(=O)c4cc(CO[C@@H]5O[C@H](CO)[C@@H](O)[C@H](O)[C@H]5O)ccc43)C(F)(F)C(F)(F)C2(F)F)c2ccc(CO[C@@H]3O[C@H](CO)[C@@H](O)[C@H](O)[C@H]3O)cc2S1(=O)=O [I-2] | yellow | fluorescent | water soluble | – | – | – |
| Cc1sc(C(=O)O[C@@H]2[C@H](O)[C@@H](O)[C@H](O)[C@@H](O)[C@@H]2O)cc1C1=C(c2cc(C(=O)O[C@@H]3[C@H](O)[C@@H](O)[C@H](O)[C@@H](O)[C@@H]3O)sc2C)C(F)(F)C(F)(F)C1(F)F [I-3] | – | – | water soluble | 254 | 595 | reversible photochromism |
